Structures are written as SMILES.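 Protocol summary: plate cells (96-well), add compound at 5 concentrations, incubate 48 h, interpolate endpoints linearly. At the GI50, growth is halved. Definition used: TGI = concentration required for complete inhibition of growth.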

Here are results for five compounds from PubChem BioAssay (NCI).

Test systems include COLO 205 colon; SK-MEL-28 melanoma; SNB-19 CNS; OVCAR-5 ovarian; A498 renal; HOP-92 NSCLC; MCF7 breast; U251 CNS; SK-MEL-5 melanoma; M14 melanoma.
Holding throughout (experiment): DTP human tumour cell line panel, 48 h

For the compound `CCN1CCN(C(=O)[C@]23CCC(C)(C)C[C@@H]2C2=CC[C@@H]4[C@@]5(C)C/C(=C/c6cccnc6)C(=O)C(C)(C)[C@@H]5CC[C@@]4(C)[C@]2(C)CC3)CC1`, the GI50 in the test with COLO 205 colon is 1.89 µM; with SK-MEL-28 melanoma, 1.48 µM; in the test with SNB-19 CNS, 1.68 µM; with OVCAR-5 ovarian, 1.56 µM; with A498 renal it was 1.66 µM; in the test on HOP-92 NSCLC, 1.06 µM. The GI50 in the test on MCF7 breast was 1.4 µM; with U251 CNS, 1.58 µM; with SK-MEL-5 melanoma, 1.63 µM; in the test on M14 melanoma, 1.6 µM. Also, the TGI in the test with COLO 205 colon worked out at 4.74 µM; in the test with SK-MEL-28 melanoma, 2.83 µM; in the test with SNB-19 CNS, 3.46 µM; with OVCAR-5 ovarian it was 3.35 µM; in the test with A498 renal it was 3.53 µM; with HOP-92 NSCLC it was 3.26 µM. Also, the total growth inhibition concentration (TGI) with MCF7 breast was 3.07 µM; in the test on U251 CNS, 3.11 µM; in the test on SK-MEL-5 melanoma, 3 µM; in the test on M14 melanoma it was 3.15 µM.
Consider `COc1ccc(/C=C/C(=O)c2ccc(Nc3ccnc4cc(Cl)ccc34)cc2)cc1`, for which the GI50 in the test on COLO 205 colon was 70.2 µM; with SK-MEL-28 melanoma, above 100 µM; in the test with SNB-19 CNS, above 100 µM; in the test with OVCAR-5 ovarian, above 100 µM; in the test with A498 renal it was above 52.3 µM; in the test on HOP-92 NSCLC, above 100 µM. For the same compound, the GI50 in the test on MCF7 breast was 2.85 µM; in the test with U251 CNS, above 100 µM; in the test with SK-MEL-5 melanoma, 21.6 µM; in the test on M14 melanoma it was above 100 µM. Besides, the TGI in the test with COLO 205 colon, in the test with SK-MEL-28 melanoma, with SNB-19 CNS, in the test with OVCAR-5 ovarian, in the test with A498 renal and in the test on HOP-92 NSCLC was above 100 µM in each case. Moreover, the TGI in the test on MCF7 breast is above 42.3 µM; in the test on U251 CNS it was above 100 µM; in the test on SK-MEL-5 melanoma, above 100 µM; in the test on M14 melanoma, above 100 µM.
Take `C[n+]1ccc(-c2c3nc(c(-c4ccc5c(ccc[n+]5C)c4)c4ccc([nH]4)c(-c4cc[n+](C)cc4)c4nc(c(-c5ccc6c(ccc[n+]6C)c5)c5ccc2[nH]5)C=C4)C=C3)cc1`: the GI50 is 23.1 µM with COLO 205 colon; 28.5 µM with SK-MEL-28 melanoma; 24.2 µM with SNB-19 CNS; above 50 µM with OVCAR-5 ovarian; 27.2 µM with A498 renal; 25.1 µM in the test on HOP-92 NSCLC. The GI50 with MCF7 breast is 42.5 µM; with U251 CNS it was 28.8 µM; in the test with SK-MEL-5 melanoma, 17.6 µM; in the test with M14 melanoma, above 50 µM. In addition, the TGI in the test with COLO 205 colon, with SK-MEL-28 melanoma, in the test on SNB-19 CNS, in the test with OVCAR-5 ovarian, in the test on A498 renal and with HOP-92 NSCLC was above 50 µM throughout. Moreover, the TGI with MCF7 breast, with U251 CNS, in the test on SK-MEL-5 melanoma and in the test with M14 melanoma was above 50 µM throughout.
Turning to `O=C(O)/C=C\C(=O)Nc1ccc2c(c1)C(=O)c1cc(F)ccc1-2`, the TGI in the test with COLO 205 colon, in the test on SK-MEL-28 melanoma, with SNB-19 CNS, in the test on OVCAR-5 ovarian, in the test on A498 renal and in the test on HOP-92 NSCLC was above 100 µM in each case. For the same compound, the TGI with MCF7 breast, in the test on U251 CNS, in the test with SK-MEL-5 melanoma and in the test with M14 melanoma was above 100 µM each time.
For `CC1=CC2C(C(C)C)CC1C1C(=O)OC(=O)C21` (stereo not given), the TGI in the test with COLO 205 colon, in the test with SK-MEL-28 melanoma, in the test with SNB-19 CNS, in the test on OVCAR-5 ovarian, in the test with A498 renal and in the test on HOP-92 NSCLC was above 100 µM each time. In addition, the TGI in the test with MCF7 breast, in the test with U251 CNS, with SK-MEL-5 melanoma and with M14 melanoma was above 100 µM each time.

One may read the GI50 as the concentration that inhibits growth by half. By TGI is commonly meant the concentration giving total growth inhibition. A lower TGI goes with greater sensitivity of the cells.
